Experimental data as given in patent US8178713B2, “Sulfur-containing phospholipid derivatives” (Pronovo Biopharma Norge AS, priority 2002, dated 2012).
Marks after values point to notes of the source that are not given here.

Key:
[1] = tested on: Fatty acyl-CoA oxidase; assay: Fatty acyl-CoA oxidase activity in rat liver homogenate after feeding; format: in vivo; settings: fed 1 mmole TTA/day/kg, 6 days, control 16.50 ± 4.74
Source text: (§1) Male wistar rats (4-5 rats in each treatment group) were fed TTA, TTA-PC or TTA-TAG at equimolar doses of TTA (1 mmole/day/kg body weight) for 6 days. Control rats received only 0.5% CMC. The rats were sacrificed and evaluated for lipid lowering effects, increased fatty acid oxidation, and activity of key mitochondrian enzymes, carnitine palmitoyltransferase-II, 3-hydroxy-3-methylglutharyl-CoA synthase and fatty acyl-CoA oxidases.
(§2) Male Wistar Charles River rats weighing 200-250 g at the start of the experiment were housed in metal wire cages in a temperature (22±1° C.) and light-controlled (light from 7.00 a.m. to 7.00 p.m.) room. They were given free access to chow and water. […] Weight gain and food intake were recorded daily. […]
(§3) Freshly isolated livers from individual male wistar rats, were homogenised in ice-cold sucrose buffer (0.25 M sucrose, 10 mM HEPES (pH 7.4) and 2 mM EDTA). […] Acid soluble products were measured in post-nuclear fractions, using [1-^14C]-palmitoyl-CoA (Radiochemical Centre, Amersham, England) as substrates as described in literature.^15 Carnitine palmitoyltransferase-II activities were measured in the mitochondrial fraction essentially as described by Bremer^16 and 3-hydroxy-3-methylglutharyl-CoA synthase was measured according to Clinkenbeard et al.^17 in the post-nuclear fraction. […]

[2] = tested on: Palmitoyl-CoA oxidation in rat liver homogenate; assay: Palmitoyl-CoA oxidation in rat liver homogenate after feeding; format: in vivo; settings: fed 1 mmole TTA/day/kg, 6 days, control 0.75 ± 0.06
Source text: as §1, §2, §3

[3] = tested on: male Wistar rats; assay: Effect of esterified and non-esterified TTA on plasma lipids, fed for 6 days; format: in vivo, rat; settings: for plasma Triacylglycerol / plasma Cholesterol: fed at equimolar doses of TTA, 1 mmole/day/kg body weight; for plasma Triacylglycerol: control (0.5% CMC) 1.20 ± 0.35; for plasma Cholesterol: control (0.5% CMC) 1.84 ± 0.25
Source text: as §1
(§4) Male Wistar Charles River rats weighing 200-250 g at the start of the experiment were housed in metal wire cages in a temperature (22±1° C.) and light-controlled (light from 7.00 a.m. to 7.00 p.m.) room. They were given free access to chow and water. They were fed a Standard Laboratory Rat Chow R-34-EWOS-ALAB (EWOS Sweden) grower rat maintenance chow. Two rats were housed per cage. The animals were acclimatized for at least 5 days before the start of the experiments. Weight gain and food intake were recorded daily. TTA and esterified TFAs (1,2-Di(1,2-Di(tetradecylthioacetoyl)-sn -glycero-3-phosphocholine (TTA-PC) and Glyceryl 1,2,3-Tri(tetradecylthioacetate) (triacylglycerol) (TTA-TAG)) were suspended in 0.5% carboxymethylcellulose (CMC) and administered by gastric intubation in a final volume of 0.8-1.2 ml once a day for 6 days.
At the end of the experiments the animals were anaesthetized with Fluorane (0.4 ml/100 g body weight) and cardiac puncture was performed to obtain blood samples in EDTA containing vacutainers. Plasma was prepared and triacylglycerol and cholesterol were measured using the Monotest enzymatic kit (Boehringer Mannheim, Germany).

[4] = tested on: mitochondrial carnitine palmitoyltransferase-II; assay: Mitochondrial carnitine palmitoyltransferase-II activity after feeding; format: in vivo, rat; settings: mitochondrial fraction of liver; fed 1 mmole TTA/day/kg, 6 days; control 8.32 ± 1.42
Source text: as §1, §2, §3

[5] = tested on: male Wistar rats; assay: Effect of esterified and non-esterified TTA on hepatic triacylglycerol content; format: in vivo, rat; settings: 6 days; for hepatic Triacylglycerol content: fed 1 mmole TTA/day/kg body weight, control 3.71 ± 0.50
Source text: as §1, §4

[6] = tested on: 3-Hydroxy-3-methylglutharyl-CoA synthase; assay: 3-Hydroxy-3-methylglutharyl-CoA synthase activity in rat liver homogenate after feeding; format: in vivo; settings: fed 1 mmole TTA/day/kg, 6 days; for 3-Hydroxy-3-methylglutharyl-CoA synthase Enzyme activity: rat liver homogenate, control 28.23 ± 4.43
Source text: as §1
Male Wistar Charles River rats weighing 200-250 g at the start of the experiment were housed in metal wire cages in a temperature (22±1° C.) and light-controlled (light from 7.00 a.m. to 7.00 p.m.) room. They were given free access to chow and water. They were fed a Standard Laboratory Rat Chow R-34-EWOS-ALAB (EWOS Sweden) grower rat maintenance chow. Two rats were housed per cage. The animals were acclimatized for at least 5 days before the start of the experiments. Weight gain and food intake were recorded daily. […]
Freshly isolated livers from individual male wistar rats, were homogenised in ice-cold sucrose buffer (0.25 M sucrose, 10 mM HEPES (pH 7.4) and 2 mM EDTA). […] Acid soluble products were measured in post-nuclear fractions, using [1-^14C]-palmitoyl-CoA (Radiochemical Centre, Amersham, England) as substrates as described in literature.^15 Carnitine palmitoyltransferase-II activities were measured in the mitochondrial fraction essentially as described by Bremer^16 and 3-hydroxy-3-methylglutharyl-CoA synthase was measured according to Clinkenbeard et al.^17 in the post-nuclear fraction. Fatty acyl-CoA oxidase was measured in the post-nuclear fraction by the coupled assay described by Small et al.^18 The production of hydrogen peroxide was measured by monitoring the increase in dichlorofluorescein absorbance in the presence of palmitoyl-CoA.

| SMILES | Fatty acyl-CoA oxidase Enzyme activity [1] | Palm-CoA oxidised [2] | decrease in plasma triacylglycerol and cholesterol levels compared to the control (largest decrease) ([3]; fed 1 mmole TTA/day/kg) | plasma Triacylglycerol [3] | plasma Cholesterol [3] | carnitine palmitoyltransferase-II Enzyme activity [4] | hepatic Triacylglycerol content [5] | decrease in the hepatic triacylglycerol level compared to the control (largest decrease) ([5]; fed 1 mmole TTA/day/kg) | increased 3-hydroxy-3-methylglutharyl-CoA synthase activity relative to that after feeding non-esterified TTA [6] | 3-Hydroxy-3-methylglutharyl-CoA synthase Enzyme activity [6] |
| --- | --- | --- | --- | --- | --- | --- | --- | --- | --- | --- |
| CCCCCCCCCCCCCCSCC(=O)OC[C@H](COP(=O)([O-])OCC[N+](C)(C)C)OC(=O)CSCCCCCCCCCCCCCC [TTA-PC, 1,2-ditetradecylthioacetoyl-sn-glycero-3-phosphocholine] | 129.48 ± 15.08^a,b nmol/mg/min | 1.39 ± 0.15^a nmol/mg/min | 60% | 0.47 ± 0.21^a,b mmol/L | 0.74 ± 0.20^a mmol/L | 31.96 ± 2.63^a,b nmol/mg/min | 2.53 ± 0.43^a μmol/mg protein | 30% | more than three times as large | 97.77 ± 20.51^a,b nmol/mg/min |
| CCCCCCCCCCCCCCSCC(=O)OCC(COC(=O)CSCCCCCCCCCCCCCC)OC(=O)CSCCCCCCCCCCCCCC [TTA-TAG, 1,2,3-Tritetradecylthioacetoyl-sn-glycerol] | 49.87 ± 22.51^a nmol/mg/min | 1.37 ± 0.08^a nmol/mg/min | – | 0.56 ± 0.21^a mmol/L | 1.18 ± 0.12^a mmol/L | 17.88 ± 4.37^a nmol/mg/min | 2.88 ± 0.50^a μmol/mg protein | – | – | 40.35 ± 6.16^a nmol/mg/min |
